This note sets out measurements from patent US20230391727A1, “ANALOGUES OF PENTAMIDINE AND METHODS FOR TREATING INFECTIONS” (Auransa Inc., priority 2020, published 2023).

A word on the MIC: it is the lowest concentration found to suppress growth. The mortality is the share of the test organisms that died. The low end stands for a weak lethal effect, the high end for a strong lethal effect.

Assay [1] is described as follows: Anti-fungal MIC assay, summary of second round. In kind it is cell-based. To be noted: read-out: Isolate MIC (100%); range over isolates of the second round of testing. The procedure: (§1) The first round of testing included Candida parapsilosis, Candida krusei, Paecilomyces variotii, Candida albicans, Aspergillus fumigatus, and Blastomyces dermatitidis. […] The second round of testing included Candida parapsilosis, Candida krusei, Candida albicans, Candida auris, Candida glabrata, Candida guilliermondii, and Cryptococcus neoformans.
(§2) Stock solutions of the investigational agent were prepared at concentrations 100-times the highest concentration to be tested (6400 μg/ml) using dimethyl sulfoxide. Aliquots of the stock solutions were dispensed into polystyrene vials and stored at −20° C.
(§3) The synthetic medium RPMI-1640 (with glutamine, without bicarbonate, and with phenol red) was used. The RPMI was buffered to a pH of 7.0+0.1 at 25° C. with 0.165M MOPS (3-[N-morpholino] propanesulfonic acid). Sterile U-shaped 96-well cell culture plates were used to perform the MIC assays. […]
(§4) Fungal isolates were grown on Sabouraud dextrose agar (yeasts) or potato flake agar (filamentous fungi) and cells were collected after an appropriate period of growth for each species being evaluated (e.g., 48-72 hours for yeasts and 7 days for filamentous fungi). The fungi were suspended in sterile distilled water, and the densities of the fungal suspension were read using a spectrophotometer and adjusted to an appropriate optical density specific for each fungal species. […]

The subject of assay [2] is Candida parapsilosis, Candida krusei, Candida albicans, Candida auris, Candida glabrata, Candida guilliermondii, and Cryptococcus neoformans. Put plainly: Anti-fungal MIC assay, summary of second round. In kind it is cell-based. As to conditions: Candida strains. The procedure: as §1, §2, §3, §4
Assay [3] has as its system A. baumannii ATCC 17978. Put plainly: Checkerboard assay with novobiocin (FIGS. 2, 3, 5, 6). The format is cell-based, Acinetobacter baumannii. The text has this: Novobiocin is an anti-staphylococcal drug, but with limited use. The oral form of novobiocin drug has since been withdrawn from the market due to lack of efficacy. This antibiotic is often used to treat Staphylococcus aureus infection, particularly methicillin resistant S. aureus “MRSA”.

The subject of assay [4] is S. aureus VRS-2. As to the kind of experiment: S. aureus VRS-2 peritonitis infection model. In kind it is in vivo, female ICR mice. The protocol: The efficacy of compound 3 was evaluated in the S. aureus VRS-2 peritonitis infection model. The test article, compound 3 at 0.1, 0.3 and 1 mg/kg, was intraperitoneally (IP) administered twice at 2 and 16 h after infection; as well as once at 2 mg/kg at 2 h post-infection. The control reference agent, linezolid at 50 mg/kg, was orally (PO) administered once at 1 h post-infection. […] All animals in the vehicle group succumbed to infection between Day 1 to Day 2, resulting in 100% mortality, and a mean 15 h survival time. […] In the compound 3 at 1 mg/kg IP BID dose group, one out of eight animals survived till Day 7 of the study period, resulting in 13% survival rate, and a mean 33 h survival time.
For efficacy testing, the 0.4 mg/mL compound 3 solution was prepared by dissolving 1.21 mg of compound 3, corresponding to active ingredient of 1.02 mg with a correction factor of 1.19, in 2.55 mL of WFI. The 0.4 mg/mL compound 3 working solution was further diluted with WFI to generate three lower dosing solutions of 0.2, 0.06 and 0.02 mg/mL. All dosing solutions were soluble and colorless.
PDS supplied vancomycin and linezolid as reference controls for both MIC and in vivo studies. […] The 3.2 mg/mL linezolid 50× stock solution was prepared by dissolving 1.0 mg of linezolid in 0.313 mL of DMSO. Both solutions were colorless and soluble. For efficacy testing, one tablet of linezolid, at 600 mg, was dissolved in 12 mL of 1% Tween 80 in saline (0.9% NaCl) to generate a 50 mg/mL of stock solution. The 50 mg/mL linezolid stock solution was further diluted with 1% Tween 80 in 0.9% NaCl to generate the dosing solution of 5 mg/mL. Both solutions were insoluble with white color.
The S. aureus strain VRS-2 peritonitis infection model was performed with immunocompetent female ICR mice, weighing 22±2 g. All animals were specific pathogen free. The PDS standard protocol for preparing S. aureus cultures for mouse infection studies was followed. A 0.2 mL aliquot of a single-use glycerol stock (at −80° C.) was used to seed […] heart infusion (BHI) and then incubated at 35-37° C. with shaking (250 rpm) for 8 h. Bacterial cells in the 20 mL was pelleted by centrifugation (3,500×g) for 15 minutes, and then re-suspended in 10 mL cold phosphate buffer saline (PBS). The optical density, OD620 nm, was measured and used to guide dilution. The PBS suspensions were stored on ice for no more than 1 h prior to animal inoculation. The dilutions were performed by 1:1 dilution of BHI broth containing hog gastric mucin to obtain the target inoculum density, 1×10^8 CFU/mouse, per 0.5 mL with 5% mucin (final concentration). The actual colony count was determined by plating dilutions to nutrient agar (NA) plates followed by 20-24 h incubation at 35-37° C.
On Day 0, animals were infected with bacterial suspension with 5% mucin by intraperitoneal injection. The actual inoculum was 1.93×10^8 CFU/mouse with a target inoculum of 1×10^8 CFU/mouse in the peritonitis infection model. Test article, compound 3, was formulated in WFI and intraperitoneally (IP) administered with the dose schedule and concentrations indicated in the study design. Doses were administered once at 2 h post-infection or twice (BID) at 2 and 16 h post-infection. The animals were monitored for survival up to 7 days, twice daily (AM 9:00/PM 17:00). […]
Animals were monitored for mortality twice daily (AM 9:00/PM 17:00) for 7 days after infection. […]

In brackets after ≈: the same amount, converted by molar mass.

In the case of `N=C(N)c1ccc(CC[C@H]2CCC[C@@H](CCc3ccc(C(=N)N)cc3)C2)cc1` [Compound 3, 4,4′-(2,2′-((1R,3S)-cyclohexane-1,3-diyl)bis(ethane-2,1-diyl))dibenzimidamide], the minimum inhibitory concentration (MIC) was 0.5 to 8 µg/mL (≈ 1.33 to 21.2 µM) in assay [1] and 33.2 µM in assay [3] (Acinetobacter baumannii, ATCC17978, substance alone). Moreover, in assay [2], the “anti-fungal effectiveness compared to fluconazole” value is reported as “more effective in killing several Candida strains of interest that are not affected by fluconazole”. For the same molecule, the “synergistic effect with novobiocin” value in assay [3] was “clear synergistic effect”. In addition, the “synergy with novobiocin as compared to pentamidine with novobiocin” value in assay [3] is recorded as “superior synergy”. This molecule also showed a mean survival time in assay [4] (1 mg/kg IP BID (2 and 16 h after infection)) of 33 h. The survival rate in assay [4] (1 mg/kg IP BID (2 and 16 h after infection), Day 7) was 13%. For the same molecule, the mortality in assay [4] (0.1 and 0.3 mg/kg IP BID, and single dose of 2 mg/kg) is reported as 100%.
